Data from PubChem BioAssay (NCI).
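96-well plates; 48 h exposure; 5 concentrations. Endpoints by linear interpolation between flanking doses. Not reached: highest tested concentration assigned. The concentration for full growth arrest is given as TGI.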

How the values were obtained:
Assay in all cases: DTP human tumour cell line panel, 48 h
UO-31 renal = tested on: UO-31 renal
OVCAR-8 ovarian = tested on: OVCAR-8 ovarian
A498 renal = tested on: A498 renal
K-562 leukemia = tested on: K-562 leukemia
SW-620 colon = tested on: SW-620 colon
NCI-H460 lung = tested on: NCI-H460 lung
HCC-2998 colon = tested on: HCC-2998 colon
KM12 colon = tested on: KM12 colon
NCI-H226 lung = tested on: NCI-H226 lung
SF-295 CNS = tested on: SF-295 CNS
MCF7 breast = tested on: MCF7 breast
MDA-MB-435 = tested on: MDA-MB-435
IGROV1 ovarian = tested on: IGROV1 ovarian
SK-OV-3 ovarian = tested on: SK-OV-3 ovarian
DU-145 prostate = tested on: DU-145 prostate
HCT-15 colon = tested on: HCT-15 colon
HCT-116 colon = tested on: HCT-116 colon
786-0 renal = tested on: 786-0 renal
RXF 393 renal = tested on: RXF 393 renal

Compound | TGI (UO-31 renal) | TGI (OVCAR-8 ovarian) | TGI (A498 renal) | TGI (K-562 leukemia) | TGI (SW-620 colon) | TGI (NCI-H460 lung) | TGI (HCC-2998 colon) | TGI (KM12 colon) | TGI (NCI-H226 lung) | TGI (SF-295 CNS) | TGI (MCF7 breast) | TGI (MDA-MB-435) | TGI (IGROV1 ovarian) | TGI (SK-OV-3 ovarian) | TGI (DU-145 prostate) | TGI (HCT-15 colon) | TGI (HCT-116 colon) | TGI (786-0 renal) | TGI (RXF 393 renal)
CC1Cc2c(Br)nc(N)nc2NC1=O (stereo not drawn) | > 100 µM | > 100 µM | > 100 µM | > 100 µM | > 100 µM | > 100 µM | > 100 µM | > 100 µM | > 100 µM | > 100 µM | > 100 µM | > 100 µM | > 100 µM | > 100 µM | > 100 µM | > 100 µM | > 100 µM | > 100 µM | 
CCC(=O)Nc1ccc(N=Cc2cccc(Oc3ccccc3)c2)cc1 | > 100 µM | 49.1 µM | > 100 µM | > 100 µM | > 100 µM |  |  | > 100 µM | > 100 µM | > 100 µM | > 100 µM | > 100 µM | > 100 µM | > 100 µM | > 100 µM | > 100 µM | > 100 µM | > 100 µM | > 100 µM
COC(=O)CCCN(C)c1n[nH]c(N)n1 | > 100 µM | > 100 µM |  | > 100 µM | > 100 µM | > 100 µM | > 100 µM | > 100 µM | > 100 µM | > 100 µM |  |  | > 100 µM | > 100 µM |  | > 100 µM | > 100 µM | > 100 µM | > 100 µM
COc1ccc(N(C)S(=O)(=O)c2ccccc2)cc1 | > 100 µM | > 100 µM |  | > 100 µM | > 100 µM | > 100 µM | > 100 µM | > 100 µM | > 100 µM | > 100 µM | > 100 µM | > 100 µM | > 100 µM | > 100 µM | > 100 µM | > 100 µM | > 100 µM | > 100 µM | > 100 µM
Cc1ccc(S(=O)(=O)N2CCN(S(=O)(=O)c3ccc(C)cc3)Cc3ccccc3C2)cc1 | > 100 µM | > 100 µM |  | > 100 µM | > 100 µM | > 100 µM | > 100 µM | > 100 µM | > 100 µM | > 100 µM | > 100 µM | > 100 µM | > 100 µM |  | > 100 µM | > 100 µM | > 100 µM | > 100 µM | 
C#CCOC(=O)c1ccccc1O | > 100 µM | > 100 µM | > 100 µM | > 100 µM | > 100 µM | > 100 µM |  | > 100 µM | > 100 µM | > 100 µM | > 100 µM | > 100 µM | > 100 µM | > 100 µM | > 100 µM | > 100 µM | > 100 µM | > 100 µM | > 100 µM
O=C1CCCCC/C1=C\c1ccc(F)cc1 | > 100 µM |  | > 100 µM | > 100 µM | > 100 µM | > 100 µM | > 100 µM | > 100 µM | > 100 µM | > 100 µM |  | > 100 µM | > 100 µM | > 100 µM | > 100 µM | > 100 µM | > 100 µM | > 100 µM | 
O=C1C=CC2(O[C@H](c3ccccc3)[C@@H](c3ccccc3)O2)C(SC(=O)c2ccccc2)C1 (stereo partly drawn) | 2.66 µM | 0.516 µM | 20.6 µM | > 100 µM | 0.811 µM | 15.6 µM |  | 6.87 µM | 4.32 µM | 6.85 µM | 2.83 µM | 4.8 µM | 2.86 µM | 7.01 µM | > 100 µM | 2.2 µM | 1.53 µM | 1.76 µM | 0.726 µM
Cc1cc(C)nc(NS(=O)(=O)c2ccc(Nc3nncc(=O)n3N)cc2)n1 | 33.9 µM | 29.2 µM | > 100 µM | 43.9 µM | 44.2 µM | > 100 µM | 80.7 µM | > 100 µM |  | > 100 µM | 30.3 µM | 33 µM | 33.1 µM | > 100 µM | > 100 µM | 28.8 µM | 87.8 µM | 29.2 µM | 
C/C=C/c1c(O)c(=O)c2c(OC)cc(OC)c3c4c(OC)cc(OC)c5c(=O)c(O)c(/C=C/C)c(c1c23)c54 | 6.33 µM | 31.4 µM | > 100 µM | > 100 µM | 87.8 µM | 44.3 µM | > 100 µM | 31.6 µM | 15.8 µM | > 100 µM | > 100 µM | 26.1 µM | 19.2 µM | > 100 µM | 23.4 µM |  | 28 µM | 38.2 µM | 
CC(=O)O[C@H]1C(=O)[C@@]2(C)[C@H]([C@H](OC(=O)c3ccccc3)[C@]3(O)C[C@H](OC(=O)[C@H](OC(=O)OCCC(O)CO)[C@@H](NC(=O)c4ccccc4)c4ccccc4)C(C)=C1C3(C)C)[C@]1(OC(C)=O)CO[C@@H]1C[C@@H]2O (stereo partly drawn) | > 100 µM | > 53 µM | 28.9 µM | 49.8 µM | > 55.8 µM | 19 µM | 0.0471 µM | 13.1 µM | < 0.01 µM | 0.187 µM | 14.1 µM |  | 34.7 µM | > 100 µM |  | > 35.4 µM | 11.3 µM | 33 µM | 18.5 µM
COc1cc(OC)cc(Oc2nc3ccccc3nc2C(=O)O)c1 | > 100 µM | > 100 µM | > 100 µM | > 100 µM | > 100 µM | > 100 µM | > 100 µM | > 100 µM | > 100 µM | > 100 µM |  | > 100 µM | > 100 µM | > 100 µM | > 100 µM | > 100 µM | > 100 µM | > 100 µM | > 100 µM
OC12c3ccccc3C1(N1CCOCC1)CCCCC21OCCCO1 (stereo not drawn) |  | > 100 µM | > 100 µM | > 100 µM |  | > 100 µM |  | > 100 µM | > 100 µM | > 100 µM |  |  | > 100 µM | > 100 µM |  | > 100 µM | > 100 µM | > 100 µM | > 100 µM
